Several values for one entry are separate records, joined by “and”; a condition that tells them apart may be missing. Equal values may be shown once. Read-outs that look alike come from different tables or passages of the source.
How the values were obtained:
lysine gingipain (Kgp) = lysine gingipain (Kgp) (Porphyromonas gingivalis (strain ATCC 33277 / DSM 20709 / CIP 103683 / JCM 12257 / NCTC 11834 / 2561), UniProt B2RLK2); test: Inhibition of lysine gingipain, fluorogenic assay (Z-His-Glu-Lys-MCA); type: biochemical; details: for selectivity for Kgp over endogenous cathepsins: as compared to reference compound 73
Description: The specific assay conditions were as follows. Buffer: pH=7.5, 100 mM Tris-HCl, 75 mM NaCl, 2.5 mM CaCl2, 10 mM cysteine, 1% DMSO after all additions. Protein: 0.1 nM Kgp, isolated from culture of Porphyromonas gingivalis, as described by Pike et al. (J. Biol. Chem. 1994, 269(1), 406), and Potempa and Nguyen (Current Protocols in Protein Science. 2007, 21.20.1-21.20.27). Fluorogenic substrate: 10 μM Z-His-Glu-Lys-MCA. Time=90 minutes. Temperature=37° C.
Further assays to measure the inhibitory activity of compounds of the present invention against Kgp and cathepsins B, H, K, L, and S were conducted as described in Example 66. The capacities of the compounds to inhibit the activity of cathepsins F, V, and Z were also measured.

Kgp = Kgp (Porphyromonas gingivalis (Bacteroides gingivalis), UniProt Q51817); test: Activity probe labeling of Kgp in P. gingivalis-infected Jurkat cells; type: cell-based
Text: The identity of this labeled protein in P. gingivalis-infected cells was confirmed to be Kgp by Western blot.

[1] = Oral pharmacokinetics in CD-1 mice; type: in vivo; details: male CD-1 mice, p.o. 10 mg/kg; for oral availability / plasma concentrations: as compared to reference compound 73
[2] = Table 3, read-out: IC50 (nM) Kgp
[3] = Table 4, read-out: IC50 (nM) Kgp
[4] = Table 5, probe compounds, read-out: Kgp IC50

Structure (SMILES)	IC50 (lysine gingipain (Kgp); [3])	other results
NCCCC[C@H](NC(=O)C1CCCC1)C(=O)COc1c(F)c(F)cc(F)c1F (stereo in doubt) [Compound 73, N-[7-amino-2-oxo-1-(2,3,5,6-tetrafluorophenoxy)heptan-3-yl]cyclopentanecarboxamide, reference compound]	< 0.05 nM	Kgp IC50 values (in words) (lysine gingipain (Kgp)): sub-nanomolar; IC50 (lysine gingipain (Kgp); [2]): ≤ 0.05 nM; IC50 (lysine gingipain (Kgp); [4]): < 0.05 nM
CSCC(=O)C(CCCCN)NC(=O)C1CCCC1 (stereo not drawn) [Compound 16a]		IC50 (lysine gingipain (Kgp); [2]): > 100 nM
NCCCCC(NC(=O)c1cccc(F)n1)C(=O)COc1c(F)cccc1F (stereo not drawn) [Compound 28a]	0.34 nM	
NCCCC[C@@H](NC(=O)C1CCCC1)C(=O)COc1c(F)c(F)cc(F)c1F [Compound 74, reference compound]		IC50 (lysine gingipain (Kgp); [2]): ≤ 0.05 nM
NCCCCC(NC(=O)c1ccc(F)cc1)C(=O)COc1c(F)cccc1F (stereo not drawn) [Compound 35a]	0.1 nM	
NCCCCC(NC(=O)c1cccnc1)C(=O)COc1c(F)cccc1F (stereo not drawn) [Compound 43a]	0.09 nM	
COC(C)(C)C(=O)NC(CCCCN)C(=O)COc1cccnc1 (stereo not drawn) [Compound 64a]	0.4 nM	
NCCCCC(NC(=O)C1CCCC1)C(=O)Cn1ccc(=O)nc1 (stereo not drawn) [Compound 40a]	30.3 nM	
NCCCCC(NC(=O)C1CCCC1)C(=O)COc1cc(F)cc(F)c1F (stereo not drawn) [Compound 4a]		IC50 (lysine gingipain (Kgp); [2]): 0.07 nM
NCCCCC(NC(=O)c1ccccc1)C(=O)C(F)F (stereo not drawn) [Compound 37a]	> 100 nM	
NCCCCC(NC(=O)c1ccc(F)nc1)C(=O)COc1ccon1 (stereo not drawn) [Compound 55a]	0.12 nM	
NCCCC[C@H](NC(=O)c1ccccn1)C(=O)COc1c(F)ccc(F)c1F [Compound 50, (S)—N-(7-amino-2-oxo-1-(2,3,6-trifluorophenoxy)heptan-3-yl)picolinamide]		selectivity for Kgp over endogenous cathepsins (lysine gingipain (Kgp)): increased selectivity
NCCCCC(NC(=O)c1ccnc(F)c1)C(=O)COc1c(F)cccc1F (stereo not drawn) [Compound 31a]	0.15 nM	
NCCCCC(NC(=O)C1CCCC1)C(=O)Cn1cncc(F)c1=O (stereo not drawn) [Compound 41a]	> 100 nM	
NCCCCC(NC(=O)C1CCCC1)C(=O)COc1cc(F)cc(F)c1 (stereo not drawn) [Compound 8a]		IC50 (lysine gingipain (Kgp); [2]): 0.34 nM
NCCCC[C@H](NC(=O)C1CCCC1)C(=O)COC(C(F)(F)F)C(F)(F)F [Compound 18, (S)—N-(7-amino-1-((1,1,1,3,3,3-hexafluoropropan-2-yl)oxy)-2-oxoheptan-3-yl)cyclopentanecarboxamide]		selectivity for Kgp over endogenous cathepsins (lysine gingipain (Kgp)): far more selective
NCCCC[C@H](NC(=O)c1ccc(F)nc1)C(=O)COc1ccon1 [Compound 55, (S)—N-(7-amino-1-(isoxazol-3-yloxy)-2-oxoheptan-3-yl)-6-fluoronicotinamide]		selectivity for Kgp over endogenous cathepsins (lysine gingipain (Kgp)): far more selective
CC1=CC(C)=[N+]2C1=Cc1ccc(CCC(=O)NCc3cn(-c4cccc(C(=O)NC(CCCCN)C(=O)COc5c(F)cccc5F)c4)nn3)n1[B-]2(F)F (stereo not drawn) [Compound 15a]		binding to purified Kgp and to Kgp in infected cells (Kgp; FIG. 6A): irreversibly binds
NCCCCC(NC(=O)c1cccnc1Br)C(=O)COc1c(F)cccc1F (stereo not drawn) [Compound 34a]	0.13 nM	
COC(C)(C)C(=O)N[C@@H](CCCCN)C(=O)COc1c(F)ccc(F)c1F [Compound 47, (S)—N-(7-amino-2-oxo-1-(2,3,6-trifluorophenoxy)heptan-3-yl)-2-methoxy-2-methylpropanamide]		concentrations in the brain and cerebrospinal fluid (CSF) [1]: increased; oral availability [1]: improved; plasma concentrations [1]: increased; selectivity for Kgp over endogenous cathepsins (lysine gingipain (Kgp)): far more selective

Structure (SMILES)	IC50 (lysine gingipain (Kgp); [3])	other results
CN(C)c1ccc(/N=N/c2ccc(C(=O)NCc3cc(F)c(OCC(=O)C(CCCCN)NC(=O)c4cccc(N=[N+]=[N-])c4)c(F)c3)cc2)cc1 (stereo not drawn) [Compound 44a]	3.04 nM	IC50 (lysine gingipain (Kgp); [4]): 3 nM
NCCCCC(NC(=O)C1CCCC1)C(=O)COC(C(F)(F)F)C(F)(F)F (stereo not drawn) [Compound 18a]	0.5 nM	IC50 (lysine gingipain (Kgp); [2]): 0.5 nM
NCCCC[C@H](NC(=O)C1CCCC1)C(=O)COc1cccc(F)c1 [Compound 7, (S)—N-(7-amino-1-(3-fluorophenoxy)-2-oxoheptan-3-yl)cyclopentanecarboxamide]		selectivity for Kgp over endogenous cathepsins (lysine gingipain (Kgp)): increased selectivity
NCCCCC(NC(=O)C1CCCC1)C(=O)COc1ccon1 (stereo not drawn) [Compound 49a]	0.23 nM	
CN(C)c1ccc(C(=O)NC(CCCCN)C(=O)COc2ccon2)cn1 (stereo not drawn) [Compound 62a]	0.14 nM	
NCCCCC(NC(=O)C1CCCC1)C(=O)COc1ccccc1F (stereo not drawn) [Compound 3a]		IC50 (lysine gingipain (Kgp); [2]): 0.64 nM
CS(C)(=O)=CC(=O)C(CCCCN)NC(=O)C1CCCC1 (stereo not drawn) [Compound 58a]	4.66 nM	
NCCCCC(NC(=O)C1CCCC1)C(=O)COCC(F)(F)F (stereo not drawn) [Compound 17a]		IC50 (lysine gingipain (Kgp); [2]): > 100 nM
NCCCCC(NC(=O)c1cccnc1)C(=O)COc1c(F)ccc(F)c1F (stereo not drawn) [Compound 42a]	0.06 nM	
NCCCCC(NC(=O)C1CCCC1)C(=O)COc1c(F)cccc1F (stereo not drawn) [Compound 2a]	< 0.05 nM	IC50 (lysine gingipain (Kgp); [2]): ≤ 0.05 nM and 0.11 nM
[N-]=[N+]=Nc1cccc(C(=O)NC(CCCCN)C(=O)COc2c(F)cccc2F)c1 (stereo not drawn) [Compound 33a]	0.08 nM	
NCCCC[C@H](NC(=O)C1CCCC1)C(=O)COc1c(F)cccc1F [Compound 2, (S)—N-(7-amino-1-(2,6-difluorophenoxy)-2-oxoheptan-3-yl)cyclopentanecarboxamide]		selectivity for Kgp over endogenous cathepsins (lysine gingipain (Kgp)): increased selectivity
NCCCCC(NC(=O)c1cccc(OCCF)c1)C(=O)COc1c(F)cccc1F (stereo not drawn) [Compound 27a]	0.27 nM	
COC(C)(C)C(=O)NC(CCCCN)C(=O)COc1c(F)cccc1F (stereo not drawn) [Compound 48a]	0.07 nM	
NCCCCC(NC(=O)C1CCCC1)C(=O)COc1cc(F)ccc1F (stereo not drawn) [Compound 6a]		IC50 (lysine gingipain (Kgp); [2]): 0.19 nM
NCCCCC(NC(=O)c1ccccn1)C(=O)COc1c(F)ccc(F)c1F (stereo not drawn) [Compound 50a]	0.09 nM	
COC(C)(C)C(=O)NC(CCCCN)C(=O)COc1cc(C)nc(C)c1 (stereo not drawn) [Compound 63a]	0.09 nM	
C[N+](C)(C)c1ccc(C(=O)NC(CCCCN)C(=O)COc2ccon2)cn1 (stereo not drawn) [Compound 61a]	0.43 nM	
COC(C)(C)C(=O)NC(CCCCN)C(=O)COc1c(F)ccc(F)c1F (stereo not drawn) [Compound 47a]	0.06 nM	
NCCCCC(NC(=O)c1cccc(F)c1)C(=O)COc1c(F)cccc1F (stereo not drawn) [Compound 26a]	0.09 nM	

Structure (SMILES)	IC50 (lysine gingipain (Kgp); [3])	other results
NCCCCC(NC(=O)c1cccc(OCCCF)c1)C(=O)COc1c(F)cccc1F (stereo not drawn) [Compound 30a]	0.21 nM	
CS(=O)(=O)CC(=O)C(CCCCN)NC(=O)C1CCCC1 (stereo not drawn) [Compound 20a]		IC50 (lysine gingipain (Kgp); [2]): > 100 nM
COC(C)(C)C(=O)NC(CCCCN)C(=O)COc1ccon1 (stereo not drawn) [Compound 57a]	0.09 nM	
COC(C)(C)C(=O)NC(CCCCN)C(=O)COc1cnc(C)nc1 (stereo not drawn) [Compound 65a]	0.16 nM	
NCCCCC(NC(=O)c1cccnc1F)C(=O)COc1ccon1 (stereo not drawn) [Compound 56a]	0.1 nM	
NCCCCC(NC(=O)C1CCCC1)C(=O)COc1cccc(F)c1 (stereo not drawn) [Compound 7a]	1.3 nM	IC50 (lysine gingipain (Kgp); [2]): 1.3 nM
NCCCCC(NC(=O)C1CCCC1)C(=O)Cn1cnccc1=O (stereo not drawn) [Compound 39a]	> 100 nM	
C[N+]1=C(/C=C/C=C/C=C2\N(CCCCCC(=O)NCc3cn(-c4cccc(C(=O)N[C@@H](CCCCN)C(=O)COc5c(F)cccc5F)c4)nn3)c3ccc(S(=O)(=O)O)cc3C2(C)C)C(C)(C)c2cc(S(=O)(=O)O)ccc21 [Compound 70]		effect of preincubation on binding of probe 15a to Kgp (Kgp; infected Jurkat cells, preincubation 1 hour): blocked the binding
NCCCCC(NC(=O)c1ccncc1)C(=O)COc1c(F)ccc(F)c1F (stereo not drawn) [Compound 52a]	0.06 nM	
NCCCC[C@H](NC(=O)C1CCCC1)C(=O)COc1ccon1 [Compound 49, (S)—N-(7-amino-1-(isoxazol-3-yloxy)-2-oxoheptan-3-yl)cyclopentanecarboxamide]		concentrations in the brain and cerebrospinal fluid (CSF) [1]: reduced
NCCCCC(NC(=O)c1cccnc1F)C(=O)COc1c(F)cccc1F (stereo not drawn) [Compound 32a]	0.08 nM	
COC(C)(C)C(=O)N[C@@H](CCCCN)C(=O)COC(C(F)(F)F)C(F)(F)F [Compound 69, (S)—N-(7-amino-1-((1,1,1,3,3,3-hexafluoropropan-2-yl)oxy)-2-oxoheptan-3-yl)-2-methoxy-2-methylpropanamide]		concentrations in the brain and cerebrospinal fluid (CSF) [1]: increased; oral availability [1]: improved; plasma concentrations [1]: increased; selectivity for Kgp over endogenous cathepsins (lysine gingipain (Kgp)): far more selective
NCCCCC(NC(=O)C1CCCC1)C(=O)COc1cccc(F)c1F (stereo not drawn) [Compound 5a]		IC50 (lysine gingipain (Kgp); [2]): 0.15 nM
CN(C)CC(=O)C(CCCCN)NC(=O)C1CCCC1 (stereo not drawn) [Compound 19a]		IC50 (lysine gingipain (Kgp); [2]): > 100 nM
COC(C)(C)C(=O)NC(CCCCN)C(=O)COC(C(F)(F)F)C(F)(F)F (stereo not drawn) [Compound 69a]	0.21 nM	
NCCCCC(NC(=O)c1ccc(F)nc1)C(=O)COc1c(F)cccc1F (stereo not drawn) [Compound 29a]	0.31 nM	
[N-]=[N+]=Nc1cccc(C(=O)NC(CCCCN)C(=O)COc2c(F)cccc2F)c1 (stereo not drawn) [Compound 12a]		IC50 (lysine gingipain (Kgp); [2]): 0.08 nM
COC(C)(C)C(=O)N[C@@H](CCCCN)C(=O)COc1c(F)cccc1F [Compound 48, (S)—N-(7-amino-1-(2,6-difluorophenoxy)-2-oxoheptan-3-yl)-2-methoxy-2-methylpropanamide]		oral availability [1]: improved; plasma concentrations [1]: increased

Source: patent US11325884B2, “Ketone inhibitors of lysine gingipain” (CORTEXYME, INC., priority 2016, dated 2022)
